Patent publication US8273900B2, “Organic compounds” (Novartis AG, priority 2008, dated 2012)

target: T1, human recombinant CRF-1 receptor (Homo sapiens, UniProt P34998); experiment: CRF-1 receptor antagonism, HTRF cAMP assay in CHO cells in the presence of 1 nM CRF; assay type: cell-based; settings: CHO cells expressing human recombinant CRF-1; inhibition of the effect of 1 nM CRF on cAMP
T1 construct: expressed in transfected cells; host or cells: CHO cells (G418-selected)
T1 sequence (P34998 24-415): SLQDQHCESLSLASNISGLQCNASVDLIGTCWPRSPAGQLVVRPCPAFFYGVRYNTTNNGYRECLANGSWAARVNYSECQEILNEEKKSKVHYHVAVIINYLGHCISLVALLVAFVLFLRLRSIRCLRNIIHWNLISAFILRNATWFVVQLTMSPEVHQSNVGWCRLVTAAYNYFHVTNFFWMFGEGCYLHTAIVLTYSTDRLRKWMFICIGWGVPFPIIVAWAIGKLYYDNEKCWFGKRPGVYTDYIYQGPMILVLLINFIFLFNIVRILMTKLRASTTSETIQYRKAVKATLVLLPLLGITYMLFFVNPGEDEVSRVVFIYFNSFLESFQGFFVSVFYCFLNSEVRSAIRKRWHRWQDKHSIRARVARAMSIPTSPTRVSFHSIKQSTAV
Procedure: The CRF-1 or CRF-2α receptor antagonistic activity of the agents of the invention has been determined in vitro in the following assay:
Chinese hamster ovary (CHO) cells expressing either the human recombinant CRF-1 or CRF-2a receptors (Chen et al., Proc Natl Acad Sci USA 90, 8967-8971, 1993; Liaw et al., Endocrinology 137, 72-77, 1996) are propagated in Dulbecco's modified Eagle medium supplemented with 10% foetal calf serum, non-essential amino acids, 100 U/ml penicillin, 100 mg/l streptomycin and 1 g/l geneticin (G418). For cyclic AMP determinations the Homogeneous Time-Resolved Fluoresce (HTRF) cAMP dynamic 2 kit (Cisbio International, France) was used as per manufacturers' instructions. CHO cells, previously cryopreserved, were thawed, centrifuged for 7 mins at 1200 rpm and resuspended in serum free media, then pipetted out onto clear bottomed black tissue culture treated 384-well microtitre plates (Corning Inc, US) at 2,000 cells per well. Compounds of the invention, prepared in DMSO, and subsequently diluted 50 fold in assay buffer (1× Hanks balanced salt solution, 0.2% (w/v) bovine serum albumin, 1.7 mM isobutylmethylxanthine and 10 mM Hepes, pH 7.4) are then added onto the cell containing plate where a further 2 fold dilution is performed and incubated for 15 min. Following incubation, buffer containing a 5 times final concentration of agonist is added to the plate and incubated for 30 min. Finally, d2 dye labelled cAMP and cryptate labeled anti-cAMP antibody, both made in lysis buffer, are added to the plate followed by a settling period of 1 hour. During the settling period cAMP produced by the cells competes with the d2 labelled cAMP for the anti-cAMP cryptate. The plate is read on the Pherastar (BMG, Germany). Increasing levels of endogenous cAMP produced by cells can be followed by a decrease of fluorescent signal and vice versa. Values represented by a change in arbitrary fluorescence units are converted into cAMP concentrations by use of a standard curve the reagents for which are supplied with the kit. Antagonist dose response curves (1 nM-30 μM) are constructed in the presence of 1 nM CRF. IC50 values of antagonists are calculated by fitting the percent inhibition of the effect of CRF by increasing concentrations of the antagonists. The fit is performed using the nonlinear logistic function of the Activitybase software package v 5.4.5.27 (IDBS, UK).

IC50 [nM] | Structure (SMILES)
114 | O=C(N[C@H]1CC[C@H](Cn2ncc3ccccc32)CC1)c1cc(C(F)(F)F)ccc1Cl [Example 21.1, N-(4-((1H-indazol-1-yl)methyl)cyclohexyl)-2-chloro-5-(trifluoromethyl) benzamide]
338 | O=C(N[C@H]1CC[C@H](Cn2cc3ccccc3n2)CC1)c1cc(C(F)(F)F)ccc1Cl [Example 21.2, 2-Chloro-N-(4-indazol-2-ylmethyl-cyclohexyl)-5-trifluorometnyl-benzamide]
299 | Cc1nc(C)n(C[C@H]2CC[C@H](NC(=O)c3cc(C(F)(F)F)ccc3Cl)CC2)n1 [Example 21.4, 2-Chloro-N-[4-(3,5-dimethyl-[1,2,4]triazol-1-ylmethyl)-cyclohexyl]-5-trifluoromethyl-benzamide]
113 | Cc1nn(C[C@H]2CC[C@H](NC(=O)c3cc(C(F)(F)F)ccc3Cl)CC2)c(C)c1Cl [Example 21.8, 2-Chloro-N-[4-(4-chloro-3,5-dimethyl-pyrazol-1-ylmethyl)-cyclohexyl]-5-trifluoromethyl-benzamide]
234 | O=C(N[C@H]1CC[C@H](Cn2ccc(-c3ccccc3)n2)CC1)c1cc(C(F)(F)F)ccc1Cl [Example 22.3, 2-Chloro-N-[4-(3-phenyl-pyrazol-1-ylmethyl)-cyclohexyl]-5-trifluoromethyl-benzamide]
350 | Cc1cc(C)n(C[C@H]2CC[C@H](NC(=O)c3cc(Cl)cnc3C)CC2)n1 [Example 22.4, 5-Chloro-N-[4-(3,5-dimethyl-pyrazol-1-ylmethyl)-cyclohexyl]-2-methyl-nicotinamide]
187 | Cc1ncc(Cl)cc1C(=O)N[C@H]1CC[C@H](Cn2nc(C(F)(F)F)cc2C)CC1 [Example 22.7, Trans-5-Chloro-2-methyl-N-[4-(5-methyl-3-trifluoromethyl-pyrazol-1-ylmethyl)-cyclohexyl]-nicotinamide]

The remaining lines, values behind:

Structure (SMILES) | IC50 [nM]
CCCc1[nH]nc(NC[C@H]2CC[C@H](NC(=O)c3cc(C(F)(F)F)ccc3Cl)CC2)c1Br [Example 19.76, Trans-N-(4-((4-bromo-5-propyl-1H-pyrazol-3-ylamino)methyl)cyclohexyl)-2-chloro-5-(trifluoromethyl) benzamide] | 78
Cc1c(NC[C@H]2CC[C@H](NC(=O)c3cc(C(F)(F)F)ccc3Cl)CC2)n[nH]c1-c1ccccc1 [Example 19.79, Trans-2-chloro-N-(4-((4-methyl-5-phenyl-1H-pyrazol-3-ylamino)methyl)cyclohexyl)-5-(trifluoromethyl) benzamide] | 37
O=C(N[C@H]1CC[C@H](CNc2n[nH]cc2-c2ccc(Cl)cc2)CC1)c1cc(C(F)(F)F)ccc1Cl [Example 19.80, Trans-2-chloro-N-(4-((4-(4-chlorophenyl)-1H-pyrazol-3-ylamino)methyl)cyclohexyl)-5-(trifluoromethyl) benzamide] | 15
Cc1cc(NC[C@H]2CC[C@H](NC(=O)c3cc(Cl)cnc3C)CC2)ncc1Cl [Example 19.83, Trans-5-chloro-N-(4-((5-chloro-4-methylpyridin-2-ylamino)methyl)cyclohexyl)-2-methyl-nicotinamide] | 38
Cc1[nH]nc(NC[C@H]2CC[C@H](NC(=O)c3cc(C(F)(F)F)ccc3Cl)CC2)c1-c1ccc(Cl)cc1 [Example 19.91, Trans-2-chloro-N-(4-((4-(4-chlorophenyl)-5-methyl-1H-pyrazol-3-ylamino)methyl)cyclohexyl)-5-(trifluoromethyl) benzamide] | 57
O=C(N[C@H]1CC[C@H](CNc2n[nH]c3cccnc23)CC1)c1cc(C(F)(F)F)ccc1Cl [Example 19.93, Trans-N-(4-((1H-pyrazolo [4,3-b]pyridin-3-ylamino)methyl)cyclohexyl)-2-chloro-5-(trifluoromethyl) benzamide] | 69
O=C(N[C@H]1CC[C@H](CNc2n[nH]cc2-c2ccccc2)CC1)c1cc(C(F)(F)F)ccc1Cl [Example 19.94, Trans-2-chloro-N-(4-((4-phenyl-1H-pyrazol-3-ylamino)methyl)cyclohexyl)-5-(trifluoromethyl) benzamide] | 59
COc1ccc(Cl)c(NC[C@H]2CC[C@H](NC(=O)c3cc(C(F)(F)F)ccc3Cl)CC2)n1 [Example 19.98, Trans-2-Chloro-N-{4-[(3-chloro-6-methoxy-pyridin-2-ylamino)-methyl]-cyclohexyl}-5-trifluoromethyl-benzamide] | 52
O=C(N[C@H]1CC[C@H](CNc2nnnn2-c2ccccc2)CC1)c1cc(C(F)(F)F)ccc1Cl [Example 19.100, Trans-2-Chloro-N-{4-[(1-phenyl-1H-tetrazol-5-ylamino)-methyl]-cyclohexyl}-5-trifluoromethyl-benzamide] | 29
Cn1cc(-c2ccccc2)c(NC[C@H]2CC[C@H](NC(=O)c3cc(C(F)(F)F)ccc3Cl)CC2)n1 [Example 19.101, Trans-2-Chloro-N-{4-[(1-methyl-4-phenyl-1H-pyrazol-3-ylamino)-methyl]-cyclohexyl}-5-trifluoromethyl-benzamide] | 69
Cc1noc(NC[C@H]2CC[C@H](NC(=O)c3cc(C(F)(F)F)ccc3Cl)CC2)c1C [Example 19.102, Trans-2-Chloro-N-{4-[(3,4-dimethyl-isoxazol-5-ylamino)-methyl]-cyclohexyl}-5-trifluoromethyl-benzamide] | 76
O=C(N[C@H]1CC[C@H](CNc2[nH]ncc2-c2cccnc2)CC1)c1cc(C(F)(F)F)ccc1Cl [Example 19.103, Trans-2-Chloro-N-{4-[(4-pyridin-3-yl-2H-pyrazol-3-ylamino)-methyl]-cyclohexyl}-5-trifluoromethyl-benzamide] | 37
[2H]C([2H])([2H])c1ncc(NC[C@H]2CC[C@H](NC(=O)c3cc(C(F)(F)F)ccc3Cl)CC2)cc1Cl [Example 19.104, Trans-2-Chloro-N-{4-[(5-chloro-6-d3-methyl-pyridin-3-ylamino)-methyl]-cyclohexyl}-5-trifluoromethyl-benzamide] | 80
Cc1ncc(Cl)cc1C(=O)N[C@H]1CC[C@H](CNc2cc(C(F)(F)F)n[nH]2)CC1 [Example 19.107, Trans-5-Chloro-2-methyl-N-{4-[(5-trifluoromethyl-2H-pyrazol-3-ylamino)-methyl]-cyclohexyl}-nicotinamide] | 118
Cc1ncc(Cl)cc1C(=O)N[C@H]1CC[C@H](CNc2ccc(F)cn2)CC1 [Example 19.108, Trans-5-Chloro-N-{4-[(5-fluoro-pyridin-2-ylamino)-methyl]-cyclohexyl}-2-methyl-nicotinamide] | 72
CCCc1cc(NC[C@H]2CC[C@H](NC(=O)c3cc(Cl)cnc3C)CC2)n[nH]1 [Example 19.110, Trans-2-Chloro-2 methyl-N-{4-[(5-propyl-1H-pyrazol-3-ylamino)-methyl]-cyclohexyl}-nicotinamide] | 97
COc1ncc(Cl)cc1NC[C@H]1CC[C@H](NC(=O)c2cc(C(F)(F)F)ccc2Cl)CC1 [Example 19.113, Trans-2-Chloro-N-{4-[(5-chloro-2-methoxy-pyridin-3-ylamino)-methyl]-cyclohexyl}-5-trifluoromethyl-benzamide] | 153
Cc1n[nH]c(NC[C@H]2CC[C@H](NC(=O)c3cc(C(F)(F)F)ccc3Cl)CC2)c1Cl [Example 19.114, Trans-2-Chloro-N-{4-[(4-chloro-5-methyl-2H-pyrazol-3-ylamino)-methyl]-cyclohexyl}-5-trifluoromethyl-benzamide] | 34
Cc1cc(NC[C@H]2CC[C@H](NC(=O)c3cc(C(F)(F)F)ccc3Cl)CC2)n(-c2ccc(Cl)cc2)n1 [Example 19.116, Trans-2-Chloro-N-(4-{[2-(4-chloro-phenyl)-5-methyl-2H-pyrazol-3-ylamino]-methyl}-cyclohexyl)-5-trifluoromethyl-benzamide] | 59
CCc1[nH]nc(NC[C@H]2CC[C@H](NC(=O)c3cc(C(F)(F)F)ccc3Cl)CC2)c1C [Example 19.117, Trans-2-Chloro-N-{4-[(5-ethyl-4-methyl-1H-pyrazol-3-ylamino)-methyl]-cyclohexyl}-5-trifluoromethyl-benzamide] | 43
